One data set deals with Candida albicans. Description: Disk diffusion test. The format is cell-based. The following applies: 10 μg/mL in DMSO/MeOH, 50 μL per 9 mm hole, 24 h 37 °C. The method, then: (§1) A qualitative screen of different microorganisms was performed using a disk diffusion test. Each microorganism was plated on Mueller Hinton agar plates and 9 mm holes were punched out. The respective compounds were dissolved in the indicated solvent to yield solutions of specified concentrations. 50 μL of the respective solutions were placed in each hole. The plates were incubated for 24 h at 37° C. After incubation, the size of inhibition zones was determined.

Another data set deals with Penicillium notatum. Nature of the data set: Disk diffusion test. The format is cell-based. Particulars: 10 μg/mL in DMSO/MeOH, 50 μL per 9 mm hole, 24 h 37 °C; methanol alone 10 mm. On the procedure:
as §1

Data set [1] relates to Sporobolomyces salmonicolor. Nature of the data set: Disk diffusion test. The following applies: 10 μg/mL in DMSO/MeOH, 50 μL per 9 mm hole, 24 h 37 °C; methanol alone 10 mm. The format is cell-based. On the procedure:
as §1

The next data set relates to Mycobacterium vaccae. Nature of the data set: Disk diffusion test. The format is cell-based. Particulars: 5 μg/mL in water, 50 μL per 9 mm hole, 24 h 37 °C. The method, then:
as §1
Background: In agar diffusion tests the substance spreads into inoculated agar from a disc or well.

Another data set deals with Escherichia coli. Nature of the data set: Disk diffusion test. The following applies: 5 μg/mL in water, 50 μL per 9 mm hole, 24 h 37 °C. The format is cell-based. On the procedure:
as §1

Data set [2] deals with Pseudomonas aeruginosa K799/61. Nature of the data set: Disk diffusion test. The format is cell-based. Particulars: 5 μg/mL in water, 50 μL per 9 mm hole, 24 h 37 °C. The method, then: as §1
A further data set concerns Bacillus subtilis. Description: Disk diffusion test. The format is cell-based. The following applies: 5 μg/mL in water, 50 μL per 9 mm hole, 24 h 37 °C. On the procedure:
as §1

Data set [3] relates to Enterococcus faecalis (VRE) 1528. Description: Disk diffusion test. The format is cell-based. Particulars: 5 μg/mL in water, 50 μL per 9 mm hole, 24 h 37 °C. On the procedure: as §1
Data set [4] relates to Pseudomonas aeruginosa SG 137. Nature of the data set: Disk diffusion test. The following applies: 5 μg/mL in water, 50 μL per 9 mm hole, 24 h 37 °C. The format is cell-based. The method, then: as §1
The test system of data set [5] is Staphylococcus aureus (MRSA) 134/94. Nature of the data set: Disk diffusion test. The format is cell-based. Particulars: 5 μg/mL in water, 50 μL per 9 mm hole, 24 h 37 °C. The method, then:
as §1

For data set [6], the system named is Staphylococcus aureus SG 511. Description: Disk diffusion test. The format is cell-based. The following applies: 5 μg/mL in water, 50 μL per 9 mm hole, 24 h 37 °C. On the procedure:
as §1

In data set [7] the test system is Candida parapsilosis ATCC 22019. Description: Broth dilution method (EUCAST). The format is cell-based. The following applies: Lodderomyces parapsilosis, ATCC22019; Candida parapsilosis ATCC 22019, EUCAST E.DEF 9.3.2; read-out: Result of the broth dilution method assay (MIC). On the procedure:
(§2) The activity assay was performed using the broth dilution method according to the EUCAST DEFINITIVE DOCUMENT E.DEF 9.3.2. B. cinerea and A. solani were incubated according to the Methods for dilution antimicrobial susceptibility tests for bacteria that grow aerobically by the NCCLS. Keanumycin A was dissolved in DMSO.

Data set [8] relates to Candida glabrata 2021-359. Nature of the data set: Broth dilution method (EUCAST). The following applies: Nakaseomyces glabratus, 2021359; Candida glabrata 2021-359, EUCAST E.DEF 9.3.2; read-out: Result of the broth dilution method assay (MIC). The format is cell-based. The method, then:
as §2
On the technique in general: Dilution methods test growth across graded concentrations, often in twofold steps.

The test system of data set [9] is Candida tropicalis 2021-360. Nature of the data set: Broth dilution method (EUCAST). The format is cell-based. Particulars: 2021360; Candida tropicalis 2021-360, EUCAST E.DEF 9.3.2; read-out: Result of the broth dilution method assay (MIC). On the procedure:
as §2

For another data set, the system named is Candida auris 2021-353. Description: Broth dilution method (EUCAST). The following applies: Candidozyma auris, 2021353; Candida auris 2021-353, EUCAST E.DEF 9.3.2; read-out: Result of the broth dilution method assay (MIC). The format is cell-based. The method, then:
as §2

The test system of data set [10] is Rhizopus arrhizus 2021-366. Description: Broth dilution method (EUCAST). The format is cell-based. The following applies: 2021366; Rhizopus arrhizus 2021-366, EUCAST E.DEF 9.3.2; read-out: Result of the broth dilution method assay (MIC). On the procedure: as §2
For data set [11], the system named is Scedosporium apiospermum 2016-079. Nature of the data set: Broth dilution method (EUCAST). The format is cell-based. Particulars: 2016079; Scedosporium apiospermum 2016-079, EUCAST E.DEF 9.3.2; read-out: Result of the broth dilution method assay (MIC). On the procedure:
as §2

The test system of data set [12] is Aspergillus fumigatus ATCC 204305. Nature of the data set: Broth dilution method (EUCAST). The following applies: ATCC204305; Aspergillus fumigatus ATCC 204305, EUCAST E.DEF 9.3.2; read-out: Result of the broth dilution method assay (MIC). The format is cell-based. The method, then:
as §2

The subject of data set [13] is Fusarium proliferatum 2021-361. Description: Broth dilution method (EUCAST). Particulars: 2021361; Fusarium proliferatum 2021-361, EUCAST E.DEF 9.3.2; read-out: Result of the broth dilution method assay (MIC). The format is cell-based. The method, then: as §2
In data set [14] the test system is Botrytis cinerea SF011406. Description: Broth dilution method (NCCLS). The format is cell-based. On the procedure:
as §2

Another data set deals with Candida strains. The following applies: against Candida strains; cited from earlier work.
Data set [15] is described as follows: Stability of isolated keanumycin C. The format is physicochemical. Particulars: in solution or concentrated to dryness. The source says: The inventors isolated keanumycin A (m/z 583.7892 [M+2H]2+ consistent with the molecular formula C49H84ClN11O19) and impure keanumycin B (m/z 575.7900 [M+2H]2+; C49H84ClN11O18), which could not be separated from an unknown metabolite (FIG. 1A). The inventors were also able to isolate keanumycin C (m/z 591.7866 [M+2H]2+; C49H84ClN11O20). […] Therefore, a detailed NMR analysis was only performed on keanumycin A. Important correlations in the ^1H, ^1H-correlation spectroscopy (COSY) experiment disclosed the presence of a 3,4-dihydroxylated linear fatty acid, which is a rare motif in NRLPs and only described for two other members of the syringomycin family (FIG. 2A). […] Saponification of keanumycin A under mild conditions led to the expected dechlorinated and linear lipopeptide 1, whose planar structure was confirmed by further HRMS2 experiments.

A further data set relates to C. albicans. Nature of the data set: Membrane permeabilization assay using SYTOX Green. The format is cell-based, Candida albicans. The following applies: 4 μg mL-1 in 1% DMSO. From the text:
Only isolated cells are stained, which can be explained by the fact that the dye can also be used to distinguish dead from live cells. Scale bar=100 μm.
To finally examine if keanumycin A is a membrane-active compound, the inventors performed a membrane permeabilization assay using SYTOX Green (FIG. 6). As a cell-impermeant dye, SYTOX Green enters the cell upon loss of membrane integrity and binds to DNA, which results in fluorescently stained cells. […] Thus, the keanumycins are membrane-active compounds that disturb the structure of the fungal […].

Values after ≈ are worked out from the molar mass of the structure shown. Where two headings read alike, the source gives them in different places. Where a SMILES comes first, the peptide text is derived from it. Bridges are numbered along the chain shown (N, C = ends). [ ]: non-standard residue; d: D form. The star is where a group is joined. Decanoyl(3R-OH) = CCCCCCC[C@@H](O)CC(=O)*; d(aThr) = C[C@@H](O)[C@@H](N)C(=O)O; Dab = NCC[C@H](N)C(=O)O; Dhb = C/C=C(\N)C(=O)O

Results on nine compounds are retold here after patent US20240391958A1, “KEANUMYCINS AND USES THEREOF IN MEDICINE AND PLANT PROTECTION” (Leibniz-Institut für Naturstoff-Forschung und …, priority 2023, published 2024).

In the case of `C[C@@H]1[C@H](O)[C@@H](C)/C=C/C=C/C=C/C=C/C=C/C=C/C=C/[C@H](O[C@@H]2O[C@H](C)[C@@H](O)[C@H](N)[C@@H]2O)C[C@@H]2O[C@](O)(C[C@@H](O)C[C@@H](O)[C@H](O)CC[C@@H](O)C[C@@H](O)CC(=O)O[C@H]1C)C[C@H](O)[C@H]2C(=O)O` [Amphotericin B, reference compound], the Inhibition area diameter with Candida albicans is 21 mm; in the data set with Penicillium notatum it was 18 mm; in data set [1], 18 mm.
In the case of `O=C(O)c1cn(C2CC2)c2cc(N3CCNCC3)c(F)cc2c1=O` [Ciprofloxacin, reference compound], the Inhibition area diameter with Mycobacterium vaccae came to 22 mm; with Escherichia coli it was 26 mm; in data set [2] it was 28 mm; with Bacillus subtilis, 29 mm; in data set [3], 16 mm; in data set [4], 26 mm. In addition, the Inhibition area diameter is listed as 0 mm in [5] and 17 mm in data set [6].
The MIC is the lowest concentration found to suppress growth. Regarding `OC(Cn1cncn1)(Cn1cncn1)c1ccc(F)cc1F` [Fluconazol, reference compound], the MIC in data set [7] is 2 µg/mL (≈ 6.53 µM); in [8] it was 2 µg/mL (≈ 6.53 µM); in data set [9], 64 µg/mL (≈ 209 µM); in the data set with Candida auris 2021-353, below 64 µg/mL.
Regarding `CC[C@@H]([C@H](C)O)n1ncn(-c2ccc(N3CCN(c4ccc(OC[C@@H]5CO[C@@](Cn6cncn6)(c6ccc(F)cc6F)C5)cc4)CC3)cc2)c1=O` [Posaconazol, reference compound], the MIC in data set [10] was 4 µg/mL (≈ 5.71 µM); in data set [11], above 8 µg/mL; in data set [7] it was 0.06 µg/mL (≈ 0.0856 µM); in data set [8] it was 0.25 µg/mL (≈ 0.357 µM); in data set [9], 0.125 µg/mL (≈ 0.178 µM); in data set [12], 0.125 µg/mL (≈ 0.178 µM). In addition, the minimum inhibitory concentration (MIC) is 0.06 µg/mL (≈ 0.0856 µM) in the data set on Candida auris 2021-353 and above 8 µg/mL in data set [13].
For the compound `C[C@@H](c1ncncc1F)[C@](O)(Cn1cncn1)c1ccc(F)cc1F` [Voriconazol, reference compound], the MIC in [10] is above 8 µg/mL; in data set [11] it was 1 µg/mL (≈ 2.86 µM); in data set [7], 0.03 µg/mL (≈ 0.0859 µM); in [8], 0.06 µg/mL (≈ 0.172 µM); in [9] it was 1 µg/mL (≈ 2.86 µM); in [12] it was 0.5 µg/mL (≈ 1.43 µM). The minimum inhibitory concentration (MIC) with Candida auris 2021-353 is 1 µg/mL (≈ 2.86 µM); in [13], 8 µg/mL (≈ 22.9 µM).
For `C/C=C(\NC(=O)[C@@H](CC(C)C)NC(=O)[C@@H](C)NC(=O)[C@H](NC(=O)[C@@H](C)NC(=O)[C@@H](CO)NC(=O)[C@H](NC(=O)[C@H](C)NC(=O)[C@@H](C)NC(=O)[C@@H](C)NC(=O)[C@H](NC(=O)[C@H](NC(=O)[C@H]1CCCN1C(=O)/C(=C/C)NC(=O)C[C@H](O)CCCCCCC)[C@H](C)CC)C(C)C)C(C)C)C(C)C)C(=O)N[C@H]1C(=O)N[C@@H](C)C(=O)N[C@@H](CCN)C(=O)N[C@H](CO)C(=O)N[C@@H](Cc2ccccc2)C(=O)O[C@@H]1C` [jessenipeptin, reference compound] ({Decanoyl(3R-OH)}-[Dhb][dP][dI][dV][dA][dA]A[dV][dS][dA][dV][dA][dL][Dhb][d(aThr)]A[Dab][dS]F; ester 15-C), the MIC in data set [14] (B. cinerea) was 10 µg/mL; in [14] (Botrytis cinerea, NCCLS, 22 °C, read-out: MIC), 5.2 µM.
For orientation: IC50 means the point on the concentration scale where inhibition reaches its midpoint. As to hassallidin D, the half-inhibitory concentration (IC50) with Candida strains is 290 to 1000 nM.
keanumycin C: the stability entry in data set [15] is recorded as “slowly degrades in solution or when concentrated to dryness”.
Turning to tunicamycin [reference compound], the figures for the “membrane permeabilization (SYTOX Green staining)” value in the data set with C. albicans and in the data set on C. albicans (listed as Tunicamycin) were “membrane integrity of C. albicans is not disturbed” and “did not cause a loss of membrane integrity”, respectively.
